For assay [1], the system named is CD4^+ T cells. The assay is described as follows: IFNγ ELISpot assay of enriched T cells. It is filed as cell-based, mice. To be noted: CD4^+ T cells plus tumor cell lines, no syngeneic antigen-presenting cells; positive control. The procedure: 1×10^5 4T1 splenocytes were co cultured with either 5×10^4 4T1 or TUBO cells. 5×10^4 4T1 lymphocytes were co cultured with either 2.5×10^4 4T1 or TUBO cells, following the manufacturers' instructions. CD4^+ and CD8^+ T cells were enriched from the spleens of naïve and 4T1-bearing WT and IL-9ko mice using a negative isolation kit (Invitrogen, Carlsbad Calif.). 1×10^5 T cells were co-cultured with 2.5×10^4 4T1 cells or with BM185, a non-specific control tumor line for 40 hours. Each experimental condition was executed in biological triplicates, which in turn comprised triplicate wells. Manufacturer's instructions were followed to reveal INFγ positive spots using the interferon gamma ELISpot kit from Mabtech (cat #3321-2HW-Plus). The plates were imaged and evaluated by ZellNet Consulting, Inc. (Fort Lee N.J.), and result expressed as average of triplicate spots per condition. Phorbol 12-myristate 13-acetate (PMA) was used as a positive control of cell activation.
These cells were co-cultured with 4T1 or BM185 cells, a BALB/c background murine leukemia cell line used here as a negative control (FIG. 4C). […]

Assay [2] has as its system 4T1 cells. The experiment in a line: Experimental metastasis model, tail vein injection of 4T1 cells, foci in the lung. Type of assay: in vivo. To be noted: IL-9ko mice, 1×10^5 4T1 cells tail vein; IL-9ko without IL-9: 3, WT: 87; p=0.043. An excerpt:
Since few IL-9ko mice that developed 4T1 tumors never had evidence of macro metastases in the lungs, an experimental metastasis model was used to verify whether IL-9 plays a role in 4T1 seeding in the lung. […] Addition of recombinant IL-9 led to enhanced 4T1 seeding in the lungs of IL-9ko mice (an average of 13 foci per lung) (p=0.043, FIGS. 7A and 7B).

For `CCCCCCCCCCCCCC(=O)O[C@@H]1[C@@H](C)[C@@]2(O)[C@@H](C=C(CO)C[C@]3(O)C(=O)C(C)=C[C@@H]23)[C@@H]2C(C)(C)[C@]12OC(C)=O` [PMA, Phorbol 12-myristate 13-acetate], the “IFNγ^+ spots” value in assay [1] is on record as “produced IFNγ^+ spots only if exposed to PMA”.

B1: recombinant IL-9: Recombinant IL-9 cytokine added to IL-9ko mice in the 4T1 lung metastasis model (protein, UniProt P15247 19-144, looked up)
Interleukin-9: QRCSTTWGIRDTNYLIENLKDDPPSKCSCSGNVTSCLCLSVPTDDCTTPCYREGLLQLTNATQKSRLLPVFHRVKRIVEVLKNITCPSFSCEKPCNQTMAGNTLSFLKSLLGTFQKTEMQRQKSRP
With B1, the “average foci per lung” value in assay [2] was determined as 13 foci per lung.

Values taken from patent US10166292B2, “Blocking IL-9 signaling in conjunction with chemotherapy to treat cancer” (Mayo Foundation for Medical Education and Research, priority 2014, dated 2019).
